Measurements published in article PMC7281280, “Is the Way to Fight Cancer Paved with Gold? Metal-Based Carbene Complexes with Multiple and Fascinating Biological Features” (Pharmaceuticals, 2020).
Where two headings read alike, the source gives them in different places.

Tests used:
[1] = test system: MCF-7 human breast cancer cells; test: MTT cell viability, MCF-7; format: cell-based; details: mean ± SD
Method: (§1) The six cell lines used in this work (MCF-7, MDA-MB-231, HeLa, […], MCF-10A and Hek-293) were purchased from American Type Culture Collection (ATCC, Manassas, VA, USA). MCF-7 human breast cancer cells, estrogen receptor (ER)-positive, were maintained in Dulbecco’s modified Eagle’s medium/nutrient mixture Ham F-12 (DMEM/F12), supplemented with 10% fetal bovine serum (FBS) and 100 U mL^−1 penicillin/streptomycin. MCF-10A human mammary epithelial cells, were cultured in DMEM/F12 medium, supplemented with 5% horse serum (HS, Thermo Fisher Scientific, Milan, Italy), 100 U mL^−1 penicillin/streptomycin, […] hydrocortisone, 20 ng mL^−1 human epidermal growth factor (hEGF), […] insulin, and […] cholera enterotoxin (Sigma–Aldrich, Milan, Italy). MDA-MB-231 human breast cancer cells, known as triple-negative cells (i.e., not overexpressing human epidermal growth factor receptor 2 (HER2), estrogen and progesterone receptors), were cultured in DMEM/F12 supplemented with 5% FBS, 1% L-glutamine and 100 U mL^−1 penicillin/streptomycin. HeLa human epithelial cervix carcinoma cells, estrogen receptor (ER)-negative, and […] human endometrial adenocarcinoma cells, estrogen receptor (ER)-positive, were maintained in minimum essential Eagle’s Medium (MEM), supplemented with 10% FBS, 1% L-glutamine, 100 U mL^−1 penicillin/streptomycin and 1% Non-Essential Amino Acids (NEAA). Hek-293 human embryonic kidney epithelial cells were cultured in DMEM high glucose (4.5 g L^−1), supplemented with 10% FBS, 1% L-glutamine and 100 U mL^–1 penicillin/streptomycin. Cells were maintained at 37 °C in a humidified atmosphere of 95% air and 5% CO2 and periodically screened for contamination.
(§2) Cell viability has been determined using the 3-(4,5-dimethylthiazol-2-y1)-2,5-diphenyltetrazolium bromide (MTT, Sigma–Aldrich, Milan, Italy) assay. Cells have been seeded on 48-well plates and grown in complete medium. Before being treated, cells have been starved in serum free medium for 24 h for allowing cell cycle synchronization. […] Data are representative of three independent experiments; standard deviations (SD) have been shown.

[2] = test system: MDA-MB-231 human breast cancer cells; test: MTT cell viability, MDA-MB-231; format: cell-based; details: mean ± SD
Method: as §1, §2

[3] = test system: HeLa human epithelial cervix carcinoma cells; test: MTT cell viability, HeLa; format: cell-based; details: 72 h, mean ± SD
Method: as §1, §2

[4] = test system: ISHIKAWA human endometrial adenocarcinoma cells; test: MTT cell viability, […]; format: cell-based; details: 72 h, mean ± SD
Method: as §1, §2

[5] = test system: MCF-10A human mammary epithelial cells; test: MTT cell viability, normal MCF-10A; format: cell-based; details: 72 h, mean ± SD
Method: as §1, §2

[6] = test system: Hek-293 human embryonic kidney epithelial cells; test: MTT cell viability, normal Hek-293; format: cell-based; details: for IC50: normal cells, MTT, 72 h, mean ± SD, read-out: IC50 Hek-293
Method: as §1, §2

MDA-MB-231 cells [7] = test: Detection of intracellular ROS (DCF-DA); format: cell-based, human; details: fluorescence microscopy
Method: We used 2,7-dichlorofluorescin diacetate (DCF-DA) as a fluorometric probe for ROS detection and their production was examined under an inverted fluorescence microscope, as already reported.
Cells were grown on glass coverslips until the treatment with compound or menadione (used as positive control) (Sigma–Aldrich, Milan, Italy). Then, cells were incubated with 10 μM 2′-7′-Dichlorofluorescein diacetate (Sigma–Aldrich, Milan, Italy) for 40 min at 37 °C in a 5% CO2 incubator, as previously described. Then, DAPI (0.2 μg mL^−1) counterstain was performed for 10 min at room temperature, in the dark. Cells were then washed three times with cold PBS, adding one drop of mounting solution, then they were observed and imaged under a fluorescence microscope (Leica DM6000; 20× magnification) with excitation/emission wavelength maxima of 490 nm/515 nm (DCF) or 350 nm/460 nm (DAPI). Images are representative of three independent experiments.
Images were acquired at 20× magnification. […] Fields are representative of three separate experiments.

tubulin = test: In vitro tubulin-polymerization assay (turbidity at 350 nm); format: biochemical; details: 10 µM; for final optical density value at 350 nm (OD350): vehicle (DMSO) about 0.43
Method: Tubulin-polymerization inihibition was measured using in vitro Tubulin-Polymerization Assay Kit purchased fromEMD Millipore Corporation. Polymerization reactions occur in 70 µL final volumes, of which 60 µL is the 60 µM tubulin in 1 × PB-GTP and 10 µL is the test substance dissolved in 1 × PB-GTP. […] These reactives were combined in 96-well plate on ice. After the plate was transferred into the spectrophotometer pre-warmed at 37 °C and the turbidity variation was measured every 30 s at 350 nm for 90 min. The plate was shaked for 10 s before each measurement. Turbidity (absorbance) readings were used to calculate the extent of polymerization [% inhibition = (1−A350 sample/A350 control) × 100].
Figure 4 Tubulin-polymerization assay. […] Two positive control molecules, Paclitaxel and Vinblastine, were used as tubulin-stabilizing and tubulin-destabilizing agents, respectively. DMSO was used as a negative control. Assembly of tubulin into microtubules was determined by measuring the turbidity at 350 nm for 3600 s at 37 °C. All the compounds were used at a concentration of 10 μM.

MDA-MB-231 cells [8] = test: Immunofluorescence of microtubules, MDA-MB-231; format: cell-based, human; details: at IC50 value, 24 h
Method: (§3) Cells were grown on glass coverslips in full media, then serum-deprived for 24 h and exposed to compounds for 24 h (concentration equal to its IC50 value). Then, the cells after PBS-washed, were fixed with cold methanol (15 min/−20 °C) and incubated with primary antibody, diluted in blocking solution (4 °C/overnight), as previously described. The mouse anti-β-Actin (69879) and the rabbit anti-β tubulin (9104) were purchased from Santa Cruz Biotechnology and used at 1:100 dilution. Coverslips were then washed 3 times with PBS, then fixed cells were incubated with the secondary antibody Alexa Fluor® 568 conjugate goat-anti-mouse and Alexa Fluor® 488 conjugate goat-anti-rabbit (1:500, Thermo Fisher Scientific, Waltham, MA, USA). Nuclei were stained using DAPI (Sigma–Aldrich, Mila, Italy) for 10 min at a concentration of 0.2 μg/mL then washed 3 times with PBS. Fluorescence was detected using a fluorescence microscope (Leica DM 6000). LAS-X software was used to acquire and process all images.
Figure 5 Immunofluorescence studies. […] Panels A: DAPI, excitation/emission wavelength 350 nm/460 nm; panels B: β-tubulin (Alexa Fluor® 488) excitation/emission wavelength 490 nm/515 nm; panels C show a merge. Representative fields are shown.

HeLa cells = test: Immunofluorescence of microtubules, HeLa; format: cell-based, human; details: at IC50 value, 24 h
Method: as §3
Figure 6 Immunofluorescence studies. HeLa cells were treated with AuL4, Vinblastine, Paclitaxel (used at their IC50 values) or with a vehicle (CTRL) for 24 h. After treatment, the cells were methanol fixed, incubated with primary and secondary antibodies, stained with DAPI and observed and imaged under the inverted fluorescence microscope at 20× magnification (see Materials and methods). […] Panels A: DAPI, excitation/emission wavelength 350 nm/460 nm; panels B: β-tubulin (Alexa Fluor® 488) excitation/emission wavelength 490 nm/515 nm; panels C show a merge. Representative fields are shown.

Structure (SMILES) | IC50 ([1]; 72 h) | IC50 ([2]; 72 h) | IC50 [3] | IC50 [4] | IC50 [5] | IC50 [6] | further results
OC(Cn1cc[n+](CC(O)c2ccccc2)[c]1[Ag-][c]1n(CC(O)c2ccccc2)cc[n+]1CC(O)c1ccccc1)c1ccccc1.[I][Ag-][I] (mixture of isomers) [AgL6] | 29.7 ± 0.3 µM | 57.9 ± 0.5 µM | 47.7 ± 0.4 µM | 26.7 ± 0.5 µM | 143.4 ± 0.8 µM | > 200 µM | 
C[n+]1ccn(CC(O)c2ccccc2)[c]1[Ag-][c]1n(CC(O)c2ccccc2)cc[n+]1C.[I][Ag-][I] (racemic) [AgL3] |  |  |  |  |  |  | IC50 MDA-MB-231 ([2]; 72 h): completely inactive
C[n+]1c(Cl)c(Cl)n(CC(O)c2ccccc2)[c]1[Ag-][c]1n(CC(O)c2ccccc2)c(Cl)c(Cl)[n+]1C.[I][Ag-][I] (racemic) [AgL7, bis-[4,5-dichloro-(N-methyl-N’(2-hydroxy-2-phenyl)ethyl-imidazole-2-ylidene]silver(I)]^+[di-iodide-silver]^−] | 10.5 ± 0.8 µM | 3.22 ± 1.2 µM | 9.76 ± 0.6 µM | 6.55 ± 0.9 µM | > 200 µM | > 200 µM | 
C[n+]1ccn(CC(O)c2ccccc2)[c]1[Au-][c]1n(CC(O)c2ccccc2)cc[n+]1C.[Cl][Au-][Cl] (racemic) [AuL3] |  | 3.43 ± 1 µM |  |  |  |  | 
OCc1ccc(-n2cc[n+](CC(O)c3ccccc3)[c]2[Au-][Br])cc1 (racemic) [AuL5] | 18.2 ± 0.5 µM | 31.7 ± 0.8 µM | 44.5 ± 0.9 µM | 54.9 ± 1 µM | > 200 µM | > 200 µM | 
OCc1ccc(-n2ccn(CC(O)c3ccccc3)[c]2=[Ag][Br])cc1 (stereo not drawn) [AgL5] | > 200 µM | > 200 µM | > 200 µM | > 200 µM | > 200 µM | > 200 µM | 
OC(Cn1ccn(CC(O)c2ccccc2)[c]1=[AuH]=[c]1n(CC(O)c2ccccc2)ccn1CC(O)c1ccccc1)c1ccccc1.[Cl][AuH][Cl] (stereo not drawn) [AuL6] | 9.38 ± 0.2 µM | 53.7 ± 0.7 µM | 98.6 ± 1.2 µM | 12.6 ± 0.3 µM | 158.8 ± 1 µM | > 200 µM | 
N.N.[Cl][Pt][Cl] [Cis-platin, Cisplatin, reference compound] | 35.8 ± 1.3 µM | 28.7 ± 1 µM | 15.7 ± 1.1 µM | 15.1 ± 0.8 µM | 81.3 ± 1.2 µM | 16.8 ± 0.4 µM | 
OCc1ccc(-[n+]2ccn(CC(O)c3ccccc3)c2)cc1 (stereo not drawn) [L5, N-[4-(hydroxymethyl)phenyl]-N’-[(2-hydroxy-2-phenyl)ethyl]-imidazolium bromide] |  |  |  |  |  |  | IC50 ([1]; Homo sapiens, MCF7, 72 h): > 200 µM; IC50 ([2]; Homo sapiens, MDA-MB-231, 72 h): > 200 µM; IC50 ([3]; Homo sapiens, HeLa): > 200 µM; IC50 ([4]; Homo sapiens, Ishikawa): > 200 µM; IC50 ([5]; Homo sapiens, MCF-10A): > 200 µM; IC50 ([6]; Homo sapiens, HEK293): > 200 µM
OC(Cn1cc[n+](CC(O)c2ccccc2)c1)c1ccccc1 (stereo not drawn) [L6] |  |  |  |  |  |  | IC50 ([1]; Homo sapiens, MCF7, 72 h): > 200 µM; IC50 ([2]; Homo sapiens, MDA-MB-231, 72 h): > 200 µM; IC50 ([3]; Homo sapiens, HeLa): > 200 µM; IC50 ([4]; Homo sapiens, Ishikawa): > 200 µM; IC50 ([5]; Homo sapiens, MCF-10A): > 200 µM; IC50 ([6]; Homo sapiens, HEK293): > 200 µM
C[n+]1cn(CC(O)c2ccccc2)c(Cl)c1Cl (stereo not drawn) [L7] | > 200 µM | > 200 µM | > 200 µM | > 200 µM | > 200 µM | > 200 µM | 
O=c1c(O)c(-c2ccc(O)c(O)c2)oc2cc(O)cc(O)c12 [Quercetin, reference compound] |  |  |  |  |  |  | increase of the Hek-293 cells viability vs AuL7 alone ([6]; pre-treatment for 4 h with Quercetin (at 50 μM), then AuL7): about 1.5 fold
CC1=CC(=O)c2ccccc2C1=O [menadione, reference compound] |  |  |  |  |  |  | ROS production (DCF green fluorescence) (MDA-MB-231 cells [7]): increased ROS production
CC(=O)O[C@H]1C(=O)[C@@]2(C)[C@H]([C@H](OC(=O)c3ccccc3)[C@]3(O)C[C@H](OC(=O)[C@H](O)[C@@H](NC(=O)c4ccccc4)c4ccccc4)C(C)=C1C3(C)C)[C@]1(OC(C)=O)CO[C@@H]1C[C@@H]2O [paclitaxel] |  |  |  |  |  |  | final optical density value at 350 nm (OD350) (tubulin; 37 °C): about 0.51; effect on microtubule network, MDA-MB-231 (MDA-MB-231 cells [8]): microtubules non-reversible polymerization; effect on microtubule network, HeLa (HeLa cells): microtubules non-reversible polymerization
CC[C@]1(O)C[C@@H]2CN(CCc3c([nH]c4ccccc34)[C@@](C(=O)OC)(c3cc4c(cc3OC)N(C)[C@H]3[C@@](O)(C(=O)OC)[C@H](OC(C)=O)[C@]5(CC)C=CCN6CC[C@]43[C@@H]65)C2)C1 [vinblastine, reference compound] |  |  |  |  |  |  | effect on tubulin-polymerization reaction (tubulin): tubulin-polymerization inhibition; time to reach the steady state of polymerization curve (tubulin; 37 °C): about 40 min; final optical density value at 350 nm (OD350) (tubulin; 37 °C): less than the half of the vehicle reaction; effect on microtubule network, MDA-MB-231 (MDA-MB-231 cells [8]): microtubules disorganization; effect on microtubule network, HeLa (HeLa cells): microtubules disorganization
